From paper PMC7033309, “π-Helix controls activity of oxygen-sensing diguanylate cyclases” (Bioscience Reports, 2020)

Target: T1, PccGCS (Pectobacterium carotovorum, UniProt C6D9C2, H237A/K238A)
T1 construct: gene PC1_2619; full-length PccGCS H237A/K238A (His-tagged)
T1 sequence (C6D9C2 1-471 H237A/K238A): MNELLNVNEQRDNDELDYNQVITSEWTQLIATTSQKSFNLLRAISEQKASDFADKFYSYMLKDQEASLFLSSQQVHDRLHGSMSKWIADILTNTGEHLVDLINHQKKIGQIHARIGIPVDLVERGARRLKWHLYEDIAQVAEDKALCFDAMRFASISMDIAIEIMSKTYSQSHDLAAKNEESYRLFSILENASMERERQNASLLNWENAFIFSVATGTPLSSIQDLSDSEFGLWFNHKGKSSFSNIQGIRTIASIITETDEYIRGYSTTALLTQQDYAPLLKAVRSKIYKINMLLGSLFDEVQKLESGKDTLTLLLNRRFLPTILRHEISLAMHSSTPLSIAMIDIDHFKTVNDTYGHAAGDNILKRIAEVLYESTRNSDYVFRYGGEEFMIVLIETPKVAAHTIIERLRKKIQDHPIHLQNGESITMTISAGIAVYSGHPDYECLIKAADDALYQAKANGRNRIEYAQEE
Experiment: isothermal titration calorimetry, […]°C
Assay type: binding

Nc1nc2c(ncn2[C@@H]2O[C@H](COP(=O)(O)CP(=O)(O)OP(=O)(O)O)[C@@H](O)[C@H]2O)c(=O)[nH]1 [GpCpp, guanosine-5′-[(α,β)-methyleno]triphosphate]
Kd: 9.7 ± 3.9 µM
